# Tested on: 953936-095-R-J2-PDC spheroids with HUVEC/MSC, viability
# Assay: Anticancer human tumor 953936-095-R-J2-PDC patient-derived cervical squamous cell carcinoma cell line growth inhibition [PI3K]
# Details: for IC50: curve of first compound; for viability, T/C: stronger effect = lower value
# Procedure, shortened: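 Multi-cell spheroids combine tumor cells with HUVEC and human MSCs, treated with targeted agents alone or with inavolisib, alpelisib, duvelisib or copanlisib. Concentrations fall in half-log steps from at or near clinical Cmax, or from 10 microM where Cmax is unknown; viability read-out.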
# [1] = second compound 0.0316 µM, first compound 0.0316 µM
# [2] = second compound 0.0316 µM, first compound 0.1 µM
# [3] = second compound 0.0316 µM, first compound 0.316 µM
# [4] = second compound 0.0316 µM, first compound 1 µM
# [5] = second compound 0.0316 µM, first compound 3.16 µM
# [6] = second compound 0.0316 µM, first compound 10 µM
# [7] = second compound 0.1 µM, first compound 0.0316 µM
# [8] = second compound 0.1 µM, first compound 0.1 µM
# [9] = second compound 0.1 µM, first compound 0.316 µM
# [10] = second compound 0.1 µM, first compound 1 µM
# [11] = second compound 0.1 µM, first compound 3.16 µM
# [12] = second compound 0.1 µM, first compound 10 µM
# [13] = second compound 0.316 µM, first compound 0.0316 µM
# [14] = second compound 0.316 µM, first compound 0.1 µM
# [15] = second compound 0.316 µM, first compound 0.316 µM
# [16] = second compound 0.316 µM, first compound 1 µM
# [17] = second compound 0.316 µM, first compound 3.16 µM
# [18] = second compound 0.316 µM, first compound 10 µM
# [19] = second compound 1 µM, first compound 0.0316 µM
# [20] = second compound 1 µM, first compound 0.1 µM
# [21] = second compound 1 µM, first compound 0.316 µM
# [22] = second compound 1 µM, first compound 1 µM
# [23] = second compound 1 µM, first compound 3.16 µM
# [24] = second compound 1 µM, first compound 10 µM
# [25] = second compound 3.16 µM, first compound 0.0316 µM
# [26] = second compound 3.16 µM, first compound 0.1 µM
# [27] = second compound 3.16 µM, first compound 0.316 µM
# [28] = second compound 3.16 µM, first compound 1 µM
# [29] = second compound 3.16 µM, first compound 3.16 µM
# [30] = second compound 3.16 µM, first compound 10 µM
# [31] = second compound 10 µM, first compound 0.0316 µM
# [32] = second compound 10 µM, first compound 0.1 µM
# [33] = second compound 10 µM, first compound 0.316 µM
# [34] = second compound 10 µM, first compound 1 µM
# [35] = second compound 10 µM, first compound 3.16 µM
# [36] = second compound 10 µM, first compound 10 µM
# 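Also: spheroids exposed to compounds for seven days before read-out.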
smiles,measurement,setting,value
CC(C)NCC(C(=O)N1CCN(c2ncnc3c2C(C)CC3O)CC1)c1ccc(Cl)cc1 (centres undefined) + Cc1nc(NC(=O)N2CCCC2C(N)=O)sc1-c1ccnc(C(C)(C)C(F)(F)F)c1,IC50,second compound 0.0316 µM,825 nM
same,IC50,second compound 0.1 µM,709 nM
same,IC50,second compound 0.316 µM,463 nM
same,IC50,second compound 1 µM,< 31.6 nM
same,IC50,second compound 3.16 µM,< 31.6 nM
same,IC50,second compound 10 µM,< 31.6 nM
same,"viability, T/C",[1],88.8%
same,"viability, T/C",[2],89.2%
same,"viability, T/C",[3],75.7%
same,"viability, T/C",[4],44.1%
same,"viability, T/C",[5],23.3%
same,"viability, T/C",[6],14.3%
same,"viability, T/C",[7],82.6%
same,"viability, T/C",[8],76.7%
same,"viability, T/C",[9],67.2%
same,"viability, T/C",[10],42.4%
same,"viability, T/C",[11],22.4%
same,"viability, T/C",[12],12.2%
same,"viability, T/C",[13],64.6%
same,"viability, T/C",[14],62.4%
same,"viability, T/C",[15],55.6%
same,"viability, T/C",[16],38.2%
same,"viability, T/C",[17],17.4%
same,"viability, T/C",[18],11.6%
same,"viability, T/C",[19],48.7%
same,"viability, T/C",[20],42.2%
same,"viability, T/C",[21],39.3%
same,"viability, T/C",[22],28.3%
same,"viability, T/C",[23],16.2%
same,"viability, T/C",[24],7.67%
same,"viability, T/C",[25],27.6%
same,"viability, T/C",[26],25.6%
same,"viability, T/C",[27],24.5%
same,"viability, T/C",[28],18%
same,"viability, T/C",[29],11.3%
same,"viability, T/C",[30],5.35%
same,"viability, T/C",[31],11.6%
same,"viability, T/C",[32],11.2%
same,"viability, T/C",[33],10.9%
same,"viability, T/C",[34],8.17%
same,"viability, T/C",[35],5.5%
same,"viability, T/C",[36],2.61%
CC1(C)CCC(CN2CCN(c3ccc(C(=O)NS(=O)(=O)c4ccc(NCC5CCOCC5)c([N+](=O)[O-])c4)c(Oc4cnc5[nH]ccc5c4)c3)CC2)=C(c2ccc(Cl)cc2)C1 + Cc1nc(NC(=O)N2CCCC2C(N)=O)sc1-c1ccnc(C(C)(C)C(F)(F)F)c1,IC50,second compound 0.0316 µM,6770 nM
same,IC50,second compound 0.1 µM,7010 nM
same,IC50,second compound 0.316 µM,5150 nM
same,IC50,second compound 1 µM,< 31.6 nM
same,IC50,second compound 3.16 µM,< 31.6 nM
same,IC50,second compound 10 µM,< 31.6 nM
same,"viability, T/C",[1],88.8%
same,"viability, T/C",[2],96.5%
same,"viability, T/C",[3],97.6%
same,"viability, T/C",[4],100%
same,"viability, T/C",[5],109%
same,"viability, T/C",[6],25.2%
same,"viability, T/C",[7],90.7%
same,"viability, T/C",[8],82.5%
same,"viability, T/C",[9],82.7%
same,"viability, T/C",[10],85.7%
same,"viability, T/C",[11],96%
same,"viability, T/C",[12],33.5%
same,"viability, T/C",[13],65.3%
same,"viability, T/C",[14],64.1%
same,"viability, T/C",[15],61.1%
same,"viability, T/C",[16],63.4%
same,"viability, T/C",[17],67.8%
same,"viability, T/C",[18],30.5%
same,"viability, T/C",[19],52.5%
same,"viability, T/C",[20],47.6%
same,"viability, T/C",[21],41.2%
same,"viability, T/C",[22],40.5%
same,"viability, T/C",[23],40%
same,"viability, T/C",[24],19.3%
same,"viability, T/C",[25],27.4%
same,"viability, T/C",[26],27.2%
same,"viability, T/C",[27],25.6%
same,"viability, T/C",[28],26.3%
same,"viability, T/C",[29],22.3%
same,"viability, T/C",[30],20.4%
same,"viability, T/C",[31],11.4%
same,"viability, T/C",[32],10.8%
same,"viability, T/C",[33],10.2%
same,"viability, T/C",[34],11.8%
same,"viability, T/C",[35],12.4%
same,"viability, T/C",[36],8.8%

# Reference: PubChem BioAssay AID1963971 (Molecular Pharmacology Branch, DTP, NCI, 2024)
